Values of other authors, collected in patent US7825135B2, “Heteroaryl piperidine glycine transporter inhibitors” (Merck Sharp & Dohme Limited, priority 2004, dated 2010).

Key:
NMDA receptor = conditions: rat; blockade of GlyT1
[1] = mice
[2] = high doses, oral, add-on to standard neuroleptic therapy
[3] = schizophrenia patients poorly responsive to antipsychotic drugs

In the case of `CN(CCC(Oc1ccc(-c2ccccc2)cc1)c1ccc(F)cc1)CC(=O)O` (stereo not shown) [NFPS], the “effect on NMDA receptor activity and NMDA receptor-dependent long-term potentiation” value (NMDA receptor) is given as “potentiates NMDA receptor activity and NMDA receptor-dependent long-term potentiation” and the “effect on pre-pulse inhibition (sensory gating)” value [1] is given as “enhance pre-pulse inhibition”.
For `NCC(=O)O` [glycine], the “effect on symptoms of schizophrenia patients” value [2] is listed as “improvement of the symptoms”.
In the case of `CNCC(=O)O` [sarcosine], the “effect on positive, negative and cognitive symptoms” value [3] is given as “beneficial effect”.
